# Results: ChEMBL document CHEMBL4373665, “Discovery of new non-acidic lonazolac analogues with COX-2 selectivity as potent anti-inflammatory agents” (Medchemcomm, 2019)
# Experiments:
# [1] = target: Prostaglandin G/H synthase 1 (Homo sapiens, UniProt P23219); assay: Inhibition of human recombinant COX1 assessed as decrease in prostaglandin production using arachidonic acid as substrate pretreated for 15 mins followed by substrate addition and measured after 2 mins by enzyme immunoassay; type: single protein
# Prostaglandin G/H synthase 1, sequence (P23219 whole entry): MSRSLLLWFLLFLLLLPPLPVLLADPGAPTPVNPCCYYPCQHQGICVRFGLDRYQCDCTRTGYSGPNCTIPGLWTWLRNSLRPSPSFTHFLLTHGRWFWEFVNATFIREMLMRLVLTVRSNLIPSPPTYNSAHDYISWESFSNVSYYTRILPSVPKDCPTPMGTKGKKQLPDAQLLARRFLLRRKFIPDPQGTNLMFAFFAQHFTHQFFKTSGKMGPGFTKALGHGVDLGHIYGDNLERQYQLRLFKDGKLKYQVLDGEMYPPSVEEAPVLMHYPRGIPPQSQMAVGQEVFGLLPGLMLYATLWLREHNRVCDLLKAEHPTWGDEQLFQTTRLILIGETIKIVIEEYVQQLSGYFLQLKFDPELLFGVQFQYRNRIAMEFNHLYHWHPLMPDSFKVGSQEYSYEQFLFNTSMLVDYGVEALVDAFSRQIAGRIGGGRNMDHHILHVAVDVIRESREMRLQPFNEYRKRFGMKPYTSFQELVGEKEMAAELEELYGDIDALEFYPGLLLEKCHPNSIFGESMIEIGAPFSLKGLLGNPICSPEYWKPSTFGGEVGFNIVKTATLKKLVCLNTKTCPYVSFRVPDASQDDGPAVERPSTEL
# [2] = target: T1, Prostaglandin G/H synthase 2 (Homo sapiens, UniProt P35354); assay: Inhibition of human recombinant COX2 assessed as decrease in prostaglandin production using arachidonic acid as substrate pretreated for 15 mins followed by substrate addition and measured after 2 mins by enzyme immunoassay
# T1 sequence (P35354 whole entry): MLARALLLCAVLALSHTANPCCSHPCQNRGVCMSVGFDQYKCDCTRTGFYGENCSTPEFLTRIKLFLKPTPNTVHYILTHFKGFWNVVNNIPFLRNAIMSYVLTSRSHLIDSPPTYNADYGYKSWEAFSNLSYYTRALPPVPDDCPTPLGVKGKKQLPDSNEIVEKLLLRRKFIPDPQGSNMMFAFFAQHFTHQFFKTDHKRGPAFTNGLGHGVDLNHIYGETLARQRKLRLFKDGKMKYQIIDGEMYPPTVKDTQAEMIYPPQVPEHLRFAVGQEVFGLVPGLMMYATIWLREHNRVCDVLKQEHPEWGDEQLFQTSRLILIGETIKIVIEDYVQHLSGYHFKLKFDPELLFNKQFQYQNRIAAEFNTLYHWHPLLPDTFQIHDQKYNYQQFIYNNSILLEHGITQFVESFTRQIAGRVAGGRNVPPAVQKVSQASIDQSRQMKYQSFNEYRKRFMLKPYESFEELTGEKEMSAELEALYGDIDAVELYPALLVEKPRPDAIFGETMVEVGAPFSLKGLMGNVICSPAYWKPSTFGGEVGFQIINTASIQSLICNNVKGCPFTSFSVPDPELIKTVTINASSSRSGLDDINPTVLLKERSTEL
# [3] = species: Homo sapiens; assay: Selectivity index, ratio of IC50 for human recombinant COX1 to IC50 for human recombinant COX2 using arachidonic acid as substrate
# [4] = system: Rattus norvegicus; assay: Anti-inflammatory activity in albino rat model of carrageenan-induced paw edema assessed as paw edema thickness at 100 mg/kg, po administered as single dose prior to carrageenan challenge measured after 8 hrs; type: functional
# [5] = system: Rattus norvegicus; assay: Anti-inflammatory activity in albino rat model of carrageenan-induced paw edema assessed as paw edema thickness at 100 mg/kg, po administered as single dose prior to carrageenan challenge measured after 12 hrs; type: functional
# [6] = system: Rattus norvegicus; assay: Anti-inflammatory activity in albino rat model of carrageenan-induced paw edema assessed as inhibition of carrageenan-induced paw edema at 100 mg/kg, po administered as single dose prior to carrageenan challenge measured after 1 hr relative to control; type: functional
# [7] = system: Rattus norvegicus; assay: Anti-inflammatory activity in albino rat model of carrageenan-induced paw edema assessed as inhibition of carrageenan-induced paw edema at 100 mg/kg, po administered as single dose prior to carrageenan challenge measured after 3 hrs relative to control; type: functional
# [8] = system: Rattus norvegicus; assay: Anti-inflammatory activity in albino rat model of carrageenan-induced paw edema assessed as inhibition of carrageenan-induced paw edema at 100 mg/kg, po administered as single dose prior to carrageenan challenge measured after 4 hrs relative to control; type: functional
# [9] = system: Rattus norvegicus; assay: Anti-inflammatory activity in albino rat model of carrageenan-induced paw edema assessed as inhibition of carrageenan-induced paw edema at 100 mg/kg, po administered as single dose prior to carrageenan challenge measured after 8 hrs relative to control; type: functional
# [10] = Ulcerogenic activity in rat assessed as effect on mucosal blood vessel at 50 mg/kg by hematoxylin and eosin staining based assay; type: toxicity, organism-based; conditions: in vivo
# [11] = system: Rattus norvegicus; assay: Anti-inflammatory activity in albino rat model of carrageenan-induced paw edema assessed as inhibition of carrageenan-induced paw edema at 100 mg/kg, po administered as single dose prior to carrageenan challenge measured after 12 hrs relative to control; type: functional
# [12] = Ulcerogenic activity in rat assessed as ulcer index at 50 mg/kg, sc qd for 4 days post 18 hrs fasting measured after 4 days; type: toxicity, organism-based; conditions: in vivo, 96 h
# [13] = Ulcerogenic activity in rat assessed as incidence of gastric ulceration at 50 mg/kg, sc qd for 4 days post 18 hrs fasting measured after 4 days relative to control; type: toxicity, organism-based; conditions: in vivo, 96 h
# [14] = Ulcerogenic activity in rat assessed as average number of ulcers formed at 50 mg/kg, sc qd for 4 days post 18 hrs fasting measured after 4 days; type: toxicity, organism-based; conditions: in vivo, 96 h
# [15] = Ulcerogenic activity in rat assessed as average severity of ulcers formed at 50 mg/kg, sc qd for 4 days post 18 hrs fasting measured after 4 days; type: toxicity, organism-based; conditions: in vivo, 96 h
# [16] = Ulcerogenic activity in rat assessed as effect on gastric mucosa at 50 mg/kg by hematoxylin and eosin staining based assay; type: toxicity, organism-based; conditions: in vivo
# [17] = Ulcerogenic activity in rat assessed as effect on parietal cells at 50 mg/kg by hematoxylin and eosin staining based assay; type: toxicity, organism-based; conditions: in vivo
# [18] = Ulcerogenic activity in rat assessed as effect on gastric submucosa at 50 mg/kg by hematoxylin and eosin staining based assay; type: toxicity, organism-based; conditions: in vivo
# [19] = Hepatotoxicity in rat assessed as effect on central veins in liver at 50 mg/kg by hematoxylin and eosin staining based assay; type: toxicity, organism-based; conditions: in vivo
# [20] = Hepatotoxicity in rat assessed as effect on portal veins at 50 mg/kg by hematoxylin and eosin staining based assay; type: toxicity, organism-based; conditions: in vivo
# [21] = Hepatotoxicity in rat assessed as effect on bile ducts at 50 mg/kg by hematoxylin and eosin staining based assay; type: toxicity, organism-based; conditions: in vivo
# [22] = Hepatotoxicity in rat assessed as effect on hepatocytes in periportal area at 50 mg/kg by hematoxylin and eosin staining based assay; type: toxicity, organism-based; conditions: in vivo
# [23] = Nephrotoxicity in rat assessed as effect on glomeruli at 50 mg/kg surrounded by Bowmann's capsule by hematoxylin and eosin staining based assay; type: toxicity, organism-based; conditions: in vivo
# [24] = Nephrotoxicity in rat assessed as effect on proximal tubule at 50 mg/kg by hematoxylin and eosin staining based assay; type: toxicity, organism-based; conditions: in vivo
# [25] = Nephrotoxicity in rat assessed as effect on distal tubule at 50 mg/kg by hematoxylin and eosin staining based assay; type: toxicity, organism-based; conditions: in vivo
Compound,IC50 [1] [µM],IC50 [2] [µM],Ratio IC50 [3],Activity [4] [mm],Activity [5] [mm],inhibition in vivo at 100 mg/kg [6] [%],inhibition in vivo at 100 mg/kg [7] [%],inhibition in vivo at 100 mg/kg [8] [%],inhibition in vivo at 100 mg/kg [9] [%],Activity [10],inhibition in vivo at 100 mg/kg [11] [%],UI [12],Activity [13] [%],Activity [14],Activity [15],Activity [16],Activity [17],Activity [18],Activity [19],Activity [20],also measured
CC(=O)n1nc(-c2ccc(Cl)cc2)cc1-c1cn(-c2ccccc2)nc1-c1ccc(OCc2ccccc2)cc1,2.72,2.79,0.975,2.17,1.82,69.8,49.7,25.8,–,–,–,–,–,–,–,–,–,–,–,–,–
NC(=S)n1nc(-c2ccc(Cl)cc2)cc1-c1cn(-c2ccccc2)nc1-c1ccc(OCc2ccccc2)cc1,6.07,4.69,1.31,–,1.89,47.5,24.6,24.5,5.9,–,–,–,–,–,–,–,–,–,–,–,–
N#CC1=C(N)OC(c2ccc(Cl)cc2)=CC1c1cn(-c2ccccc2)nc1-c1ccc(OCc2ccccc2)cc1 (stereo not given),9.68,11.6,0.831,2.31,1.85,28.8,38.2,18.2,–,–,–,–,–,–,–,–,–,–,–,–,–
NC(=S)n1nc(-c2ccccc2)cc1-c1cn(-c2ccccc2)nc1-c1ccc(OCc2ccccc2)cc1,5.2,5.2,1,2.2,1.8,3.97,7.29,2.15,–,–,–,–,–,–,–,–,–,–,–,–,–
Nc1nc(-c2ccc(Cl)cc2)cc(-c2cn(-c3ccccc3)nc2-c2ccc(OCc3ccccc3)cc2)n1,0.6,3.99,0.15,2.17,1.8,50.8,30.4,20.4,–,–,–,–,–,–,–,–,–,–,–,–,–
Nc1nc(-c2ccccc2)cc(-c2cn(-c3ccccc3)nc2-c2ccc(OCc3ccccc3)cc2)n1,16.5,2.8,5.89,–,–,82,74.4,83.9,40.2,Toxic,33.6,3.2,2,0.6,0.6,Toxic,Toxic,Toxic,Toxic,Toxic,Activity [21]: Toxic; Activity [22]: Toxic; Activity [23]: Toxic; Activity [24]: Toxic; Activity [25]: Toxic
S=c1nc(-c2ccccc2)cc(-c2cn(-c3ccccc3)nc2-c2ccc(OCc3ccccc3)cc2)[nH]1,0.31,1,0.31,2.19,1.88,48.5,33.8,14.6,–,–,–,–,–,–,–,–,–,–,–,–,–
c1ccc(COc2ccc(-c3nn(-c4ccccc4)cc3-c3cc(-c4ccccc4)no3)cc2)cc1,9.57,2.11,4.54,–,1.83,73.8,42.5,28.4,6.9,–,–,–,–,–,–,–,–,–,–,–,–
N#CC1=C(N)OC(c2ccccc2)=CC1c1cn(-c2ccccc2)nc1-c1ccc(OCc2ccccc2)cc1 (stereo not given),4.02,0.72,5.58,–,–,69,59.5,54.5,42.9,Toxic,28.2,5.2,4,0.8,0.4,Toxic,Toxic,Toxic,Toxic,Toxic,Activity [21]: Toxic; Activity [22]: Toxic; Activity [23]: Toxic; Activity [24]: Toxic; Activity [25]: Toxic
Clc1ccc(-c2cc(-c3cn(-c4ccccc4)nc3-c3ccc(OCc4ccccc4)cc3)on2)cc1,2.89,1.25,2.31,–,–,69.8,70.9,42.9,48.7,Toxic,45,8.4,6,1.2,1.2,Toxic,Toxic,Toxic,Toxic,Toxic,Activity [21]: Toxic; Activity [22]: Toxic; Activity [23]: Toxic; Activity [24]: Toxic; Activity [25]: Toxic
